Series [1] in a line: Phase 1 study: treatment duration, modification, exposure and disposition. The series is classed as in vivo, human. The settings on record: dose expansion, NEN cohort, n=16.
The conditions of series [2]: dose escalation, cited from earlier work.

Turning to `COc1ccc(-c2c(-c3ccc(C#N)c(F)c3)nc(N3CCC(N)CC3)n(C)c2=O)cc1F` [CC‐90011], the “≥1 dose interruption due to AE” value in series [1] is reported as 10 (63%) n (%). Moreover, the dose-limiting toxicity entry in series [2] was “Thrombocytopenia was the only dose‐limiting toxicity reported”. Further, in series [2] (once per week), the maximum tolerated dose is listed as 80 mg, the nontolerated dose is listed as 120 mg and the “recommended phase 2 dose (RP2D)” value is on record as 60 mg.
